# From PubChem BioAssay (NCI)
#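 Protocol summary: plate cells (96-well), add compound at 5 concentrations, incubate 48 h, interpolate endpoints linearly. TGI denotes the concentration required for complete inhibition of growth.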
# Assays:
# Test in all cases: growth of human tumour cells (NCI), 48 h
# HCT-116 colon = test system: HCT-116 colon
# HOP-92 NSCLC = test system: HOP-92 NSCLC
# IGROV1 ovarian = test system: IGROV1 ovarian
# NCI-H23 lung = test system: NCI-H23 lung
# OVCAR-8 ovarian = test system: OVCAR-8 ovarian
# SN12C renal = test system: SN12C renal
# SNB-75 CNS = test system: SNB-75 CNS
# TK-10 renal = test system: TK-10 renal
# DU-145 prostate = test system: DU-145 prostate
# HT29 colon = test system: HT29 colon
SMILES,TGI (HCT-116 colon) [µM],TGI (HOP-92 NSCLC) [µM],TGI (IGROV1 ovarian) [µM],TGI (NCI-H23 lung) [µM],TGI (OVCAR-8 ovarian) [µM],TGI (SN12C renal) [µM],TGI (SNB-75 CNS) [µM],TGI (TK-10 renal) [µM],TGI (DU-145 prostate) [µM],TGI (HT29 colon) [µM]
CCCCC(=O)Nc1ccc2cc(C(=O)OC)c(=O)[nH]c2n1,> 100,> 100,> 100,> 100,> 100,> 100,> 100,> 100,–,–
Brc1ccc2c(c1)[C@H]1CCc3c([nH]c4ccccc34)[C@H]1N2,21,26.3,15.6,25,27.4,27.2,35.7,23.3,25.5,27.1
O=c1[nH]nc(Nc2ccccc2)c2nnn(Cc3ccccc3)c12,> 100,> 100,> 100,> 100,> 100,> 100,85.3,> 100,> 100,> 100
Clc1ccc2nc3c(c(-c4ccccc4)nn3-c3ccccc3)c(-c3ccccc3)c2c1,> 100,> 100,> 100,> 100,> 100,> 100,> 100,> 100,> 100,> 100
CCOC(=O)C(NC(=O)Nc1ccccc1)(Nc1cccc(Cl)c1)C(F)(F)F (configuration not stated),> 100,94.6,> 100,> 100,> 100,> 100,> 100,> 100,> 100,> 100
CC12CCC3=C(CSC4=C3CSc3ccccc34)C1=CCCC2=O (configuration not stated),> 100,–,–,> 100,> 100,> 100,–,> 100,–,> 100
Cc1cc2nc(N)n[n+]([O-])c2cc1C,> 100,–,> 100,> 100,> 100,> 100,–,> 100,> 100,> 100
c1ccc2c3c(c(N4CCNCC4)nc2c1)CCCC3,27.5,27.2,25,28,29.6,31.1,27,26.6,28.6,28.3
Oc1cccc(-c2cc(=S)ss2)c1,33.3,28.5,29.8,23.1,49.9,36.5,–,33.1,–,55.3
O=C1N2CCN=C2c2ccccc2C1(O)c1ccccc1 (configuration not stated),> 100,> 100,> 100,> 100,> 100,> 100,> 100,> 100,> 100,> 100
COc1c2c(cc3oc(=O)ccc13)OC(C)(C)C=C2,40.8,34.1,75.7,60.1,75.1,100,56.6,> 125,55.9,> 125
O=C(CSCC(=O)N/N=C/c1ccc(F)cc1)N/N=C/c1ccc(F)cc1,> 100,> 100,> 100,> 100,> 100,> 100,> 100,> 100,> 100,> 100
CCOC(=O)Cn1c(=O)c2cc(C)cc3c(Cl)nc4c(OC)c(OC)cc1c4c32,> 100,> 100,> 100,> 100,> 100,–,> 100,> 100,> 100,> 100
COc1cc(C(C)(C)C)c(OC(=O)/C=C/C(=O)O/C=C/[N+](=O)[O-])c(C(C)(C)C)c1,> 100,> 100,> 100,42.6,> 100,> 100,> 100,> 100,> 100,56.6
c1ccc2c(c1)N=c1ccccc1=P21c2ccccc2Nc2ccccc21,1.76,2.32,10.6,5.34,5.62,13.5,4.67,8.12,10.5,10.1
COc1cc(CNc2nc3cc(C(F)(F)F)ccc3nc2C(=O)O)cc(OC)c1OC,29,–,–,> 100,> 100,30.2,74.7,39.7,> 100,–
COC(=O)[C@@]12CC3CN(Cc4c1[nH]c1ccccc41)C2CC3=O,> 100,> 100,> 100,> 100,> 100,> 100,> 100,> 100,> 100,> 100
O=C(NC12CC3CC(CC(C3)C1)C2)n1cnc2cncnc21,> 100,> 100,98,> 100,> 100,> 100,> 100,> 100,> 100,> 100
CC1CN=C(c2ccc3c(c2)Cc2cc(C4=NCC(C)N4)ccc2-3)N1 (configuration not stated),> 100,> 100,> 100,> 100,> 100,> 100,> 100,> 100,> 100,> 100
O=C(O)CC(Cc1ccccc1)C(=O)O (configuration not stated),> 100,–,> 100,> 100,> 100,> 100,–,> 100,> 100,> 100
C(=C/c1ccc2nc(-c3ccc(/C=C/C=N/NC4=NCCCN4)cc3)cn2c1)/C=N/NC1=NCCCN1,> 100,> 100,> 100,> 100,39,> 100,> 100,> 100,41.6,–
COc1cc2[nH]c(=O)[nH]c2c2c(C)c[nH]c12,> 100,–,> 100,> 100,> 100,> 100,> 100,> 100,> 100,> 100
